Tested on: NOMO1
Assay: cell viability relative to DMSO control; higher = less cytotoxic
Conditions: 48 h
Summary of the method: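 Cells were incubated for 48 h at 37°C before CellTiter-Glo One luminescence was read. The cells were NOMO1 or SEM (500 cells/well) or P12-Ichikawa (1000 cells/well) leukemia cells, adapted for at least four passages in each medium and seeded in 1536-well plates (5 μl). Dosing used library compounds in DMSO applied by pin over 11 threefold points, 47 μM to 0.79 nM. Viability is the per-plate percentage of DMSO wells, with cell-free wells as background.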

[1] = HPLM + 10% dialyzed FBS, 0.000781 µM
[2] = HPLM + 10% dialyzed FBS, 0.00234 µM
[3] = HPLM + 10% dialyzed FBS, 0.00702 µM
[4] = HPLM + 10% dialyzed FBS, 0.0211 µM
[5] = HPLM + 10% dialyzed FBS, 0.0632 µM
[6] = HPLM + 10% dialyzed FBS, 0.19 µM
[7] = HPLM + 10% dialyzed FBS, 0.569 µM
[8] = HPLM + 10% dialyzed FBS, 1.71 µM
[9] = HPLM + 10% dialyzed FBS, 5.12 µM
[10] = HPLM + 10% dialyzed FBS, 15.4 µM
[11] = HPLM + 10% dialyzed FBS, 46.1 µM
[12] = RPMI 5 mM glucose + 10% FBS, 0.000781 µM
[13] = RPMI 5 mM glucose + 10% FBS, 0.00234 µM
[14] = RPMI 5 mM glucose + 10% FBS, 0.00702 µM
[15] = RPMI 5 mM glucose + 10% FBS, 0.0211 µM
[16] = RPMI 5 mM glucose + 10% FBS, 0.0632 µM
[17] = RPMI 5 mM glucose + 10% FBS, 0.19 µM
[18] = RPMI 5 mM glucose + 10% FBS, 0.569 µM
[19] = RPMI 5 mM glucose + 10% FBS, 1.71 µM
[20] = RPMI 5 mM glucose + 10% FBS, 5.12 µM
[21] = RPMI 5 mM glucose + 10% FBS, 15.4 µM
[22] = RPMI 5 mM glucose + 10% FBS, 46.1 µM
[23] = RPMI 5 mM glucose + 10% dialyzed FBS, 0.000781 µM
[24] = RPMI 5 mM glucose + 10% dialyzed FBS, 0.00234 µM
[25] = RPMI 5 mM glucose + 10% dialyzed FBS, 0.00702 µM
[26] = RPMI 5 mM glucose + 10% dialyzed FBS, 0.0211 µM
[27] = RPMI 5 mM glucose + 10% dialyzed FBS, 0.0632 µM
[28] = RPMI 5 mM glucose + 10% dialyzed FBS, 0.19 µM
[29] = RPMI 5 mM glucose + 10% dialyzed FBS, 0.569 µM
[30] = RPMI 5 mM glucose + 10% dialyzed FBS, 1.71 µM
[31] = RPMI 5 mM glucose + 10% dialyzed FBS, 5.12 µM
[32] = RPMI 5 mM glucose + 10% dialyzed FBS, 15.4 µM
[33] = RPMI 5 mM glucose + 10% dialyzed FBS, 46.1 µM

SMILES | cell viability [1] [%] | cell viability [2] [%] | cell viability [3] [%] | cell viability [4] [%] | cell viability [5] [%] | cell viability [6] [%] | cell viability [7] [%] | cell viability [8] [%] | cell viability [9] [%] | cell viability [10] [%] | cell viability [11] [%] | cell viability [12] [%] | cell viability [13] [%] | cell viability [14] [%] | cell viability [15] [%] | cell viability [16] [%] | cell viability [17] [%] | cell viability [18] [%] | cell viability [19] [%] | cell viability [20] [%] | cell viability [21] [%] | cell viability [22] [%] | cell viability [23] [%] | cell viability [24] [%] | cell viability [25] [%] | cell viability [26] [%] | cell viability [27] [%] | cell viability [28] [%] | cell viability [29] [%] | cell viability [30] [%] | cell viability [31] [%] | cell viability [32] [%] | cell viability [33] [%]
Cc1onc(-c2ccccc2)c1C(=O)N[C@@H]1C(=O)N2[C@@H]1SC(C)(C)[C@@H]2C(=O)[O-].[Na+] | 120 | 131 | 105 | 113 | 134 | 98.5 | 95.5 | 64.5 | 77.8 | 51.1 | 54.7 | 112 | 111 | 117 | 104 | 112 | 103 | 101 | 79.5 | 77.7 | 84.7 | 56.8 | 111 | 109 | 115 | 114 | 101 | 97.4 | 98.6 | 88.9 | 72.2 | 67.1 | 53.8
CC(O)C1C2C(C)\C(=C(/N2C1=O)C(O)=O)SC3CNC(C3)C(=O)N(C)C (stereo not given) | 75.7 | 78.3 | 85.5 | 94.8 | 99 | 82.5 | 87.7 | 97.5 | 82.8 | 81.7 | 88.7 | 86.1 | 84.1 | 85.2 | 89.1 | 81.7 | 84.4 | 82.5 | 81.6 | 82.8 | 88.4 | 86.3 | 68.1 | 73.9 | 72.6 | 84.1 | 84.2 | 86.2 | 85.6 | 88.4 | 82.6 | 91.5 | 91
CC/1=C(\O)C(=O)\C=C2/C1=C/C=C3\[C@@]2(C)CC[C@@]4(C)[C@@H]5C[C@@](C)(CC[C@]5(C)CC[C@]34C)C(O)=O | 104 | 119 | 97.5 | 99.6 | 108 | 115 | 113 | 90 | 23.4 | 8.21 | 8.32 | 92.5 | 103 | 102 | 105 | 95 | 90.6 | 85.6 | 89.7 | 26.2 | 11 | 6.03 | 108 | 104 | 112 | 99.8 | 109 | 97.6 | 110 | 82.6 | 20.6 | 14.1 | 5.2
Cc1nc(Nc2n[nH]c3c2CN(C(=O)N[C@H](CN(C)C)c2ccccc2)C3(C)C)c2sccc2n1 | 89.4 | 82.7 | 70.7 | 74.1 | 65.7 | 53.8 | 54.3 | 40.2 | 41.2 | 23.1 | 2.58 | 82.6 | 85 | 91.1 | 82.6 | 71.8 | 54.2 | 53.2 | 40.5 | 38.7 | 25.6 | 2.97 | 80.3 | 86.9 | 78.3 | 72.6 | 55.8 | 58 | 60.1 | 38.9 | 40.9 | 31 | 2.28
CN(C)C1=C(Br)C=C(C=C1)C\2NC3=C(\C4=C2C(=O)CC(C)(C)C4)C5=CC=CC=C5C=C3 (stereo not given) | – | – | – | – | – | – | – | – | – | – | – | 103 | 124 | 119 | 113 | 114 | 103 | 113 | 98 | 110 | 103 | 102 | 75.9 | 117 | 158 | 172 | 182 | 71.7 | 52.3 | 89.3 | 143 | 74.4 | 94.8
C[C@](N)(Cc1ccc(O)c(O)c1)C(=O)O | 84.9 | 84.3 | 96.8 | 74.9 | 89.4 | 82 | 76.7 | 69.9 | 92.9 | 76.8 | 72.6 | 86.4 | 80.1 | 93.9 | 82 | 81.7 | 81 | 76.5 | 78.4 | 82.9 | 76.9 | 74.1 | 88.3 | 88.5 | 85 | 87.1 | 92.2 | 85.7 | 78.1 | 87.2 | 82.3 | 79 | 77.9
COc1cc(CNC(=O)CCCC/C=C/C(C)C)ccc1O | 111 | 116 | 113 | 123 | 114 | 112 | 71.5 | 77 | 79.1 | 60.9 | 47.2 | 101 | 99.6 | 95 | 115 | 104 | 114 | 90.6 | 45.9 | 36.6 | 41.1 | 36.4 | 102 | 97.8 | 103 | 98.5 | 106 | 101 | 99.5 | 55.3 | 52 | 50.4 | 59.7
COC(=O)\C1=C\CCN(C)C1 | 125 | 115 | 111 | 102 | 101 | 124 | 135 | 115 | 113 | 112 | 109 | 84.7 | 94.8 | 96.5 | 91.3 | 85.3 | 94 | 110 | 97.4 | 93.6 | 87 | 99 | 95.7 | 96.3 | 98.9 | 95.7 | 107 | 97.4 | 92.5 | 97.6 | 88.9 | 102 | 103
CC(C)(O)c1cc2nc(-c3cnc(N)nc3)nc(N3CCOCC3)c2s1 | – | – | – | – | – | – | – | – | – | – | – | 123 | 121 | 107 | 121 | 110 | 104 | 104 | 88.7 | 76.6 | 63.1 | 67.5 | 121 | 125 | 114 | 105 | 98.2 | 85.8 | 83.3 | 60.8 | 53.4 | 46.8 | 51.8
C[C@@]1(C(=O)Nc2ccc(F)nc2)CCCN1c1nc(Nc2cc(C3CC3)[nH]n2)c2cccn2n1 | 83.2 | 108 | 108 | 89.9 | 90.7 | 71.2 | 77.4 | 67.5 | 44.9 | 46.3 | 62 | 104 | 108 | 120 | 110 | 108 | 93.3 | 112 | 86 | 62.9 | 56.8 | 68.5 | 96.6 | 108 | 105 | 102 | 97.9 | 85.4 | 80 | 86.2 | 51.6 | 55.2 | 60
N=C1N[C@H]2[C@H](CS[C@H]2CCCCC(=O)O)N1 | 86.7 | 115 | 121 | 120 | 139 | 126 | 146 | 129 | 138 | 118 | 137 | 113 | 114 | 110 | 109 | 111 | 123 | 107 | 117 | 112 | 120 | 110 | 109 | 122 | 119 | 132 | 121 | 135 | 121 | 131 | 119 | 143 | 136
CCN1CCN(C(=O)Cc2ccc(Nc3ncc(F)c(Nc4ccc(C(=O)Nc5ccccc5Cl)cc4)n3)cc2)CC1 | 93.9 | 119 | 112 | 115 | 112 | 114 | 109 | 109 | 62.6 | 62.4 | 49.1 | 99.6 | 98.1 | 98 | 92.7 | 111 | 121 | 101 | 90.7 | 81.2 | 47.1 | 59.4 | 97.5 | 109 | 104 | 117 | 107 | 103 | 114 | 103 | 64.9 | 55.8 | 49
NC(=O)c1ncn([C@@H]2O[C@H](CO)[C@@H](O)[C@H]2O)c1O | – | – | – | – | – | – | – | – | – | – | – | 122 | 125 | 114 | 118 | 114 | 136 | 129 | 127 | 112 | 112 | 117 | 122 | 127 | 115 | 113 | 106 | 120 | 118 | 103 | 115 | 118 | 112
COc1cccc2c1[C@]13CCN(CC4CC4)[C@H](C2)[C@]1(OC)CCC(=O)C3 | 89.7 | 96.5 | 127 | 121 | 118 | 119 | 116 | 129 | 122 | 82.2 | 111 | 101 | 111 | 103 | 124 | 126 | 117 | 132 | 125 | 133 | 110 | 124 | 106 | 108 | 106 | 111 | 110 | 116 | 109 | 111 | 105 | 106 | 105
CN1CCN(C(=O)O[C@H]2c3nccnc3C(=O)N2c2ccc(Cl)cn2)CC1 | 115 | 102 | 119 | 114 | 114 | 112 | 114 | 101 | 91.1 | 98.4 | 88.1 | 94.8 | 99.2 | 92.4 | 106 | 103 | 99.4 | 99.4 | 97.9 | 99.3 | 93.8 | 84.6 | 97.6 | 107 | 103 | 94.2 | 99.1 | 97 | 105 | 97.2 | 97 | 88.5 | 78.5
CCOC(=O)\C1=C\[C@@H](OC(CC)CC)[C@H](NC(C)=O)[C@@H](N)C1 | 90.4 | 86.1 | 94.3 | 98.9 | 93.7 | 107 | 92.5 | 93.1 | 84 | 86.9 | 86.4 | 91.9 | 92.5 | 94.9 | 91.9 | 95.1 | 98.9 | 95.7 | 102 | 88.9 | 103 | 82.7 | 84.4 | 93.4 | 102 | 87.4 | 94.9 | 106 | 93.6 | 91.7 | 99.3 | 103 | 87.1

From the supplement of paper PMC11451515
